Data from patent US20240416143A1, “PHOTONIC ANTIMICROBIAL WOUND SURFACE DRESSING” (The General Hospital Corporation, priority 2021, published 2024).

Columns and labels:
[1] = system: MRSA; assay: MIC of menadione by broth microdilution, with or without aBL; assay type: cell-based, methicillin-resistant Staphylococcus aureus; conditions: for MIC: Staphylococcus aureus, MRSA, light or radiation study
Description: The MICs of menadione in different bacterial strains were determined by a standard broth microdilution assay according to the Clinical and Laboratory Standards Institute. Briefly, menadione was prepared at 100 mg/mL in Tween 80/DMSO (1:1) as a stock solution. The stock solution was diluted to 2048 μg/mL in BHI and then serial dilutions were performed to 1024-0.015 μg/mL in a 96-well plate. Then, a 10 μL stationary growth-phase culture of 10^8 CFU/mL bacteria in BHI broth was added to the 96-well plate containing the serial dilutions of menadione. The medium containing a similar amount of Tween 80/DMSO (1:1) served as a control. The microplates were incubated at 37° C. for 24 hours and the lowest concentration of the compound capable of completely inhibiting bacterial growth was referred to as the MIC.
However, we investigated the effects of aBL (50 mW/cm^2) in potentiating the antibacterial activities of menadione in the three strains of bacteria. […] The highest fluence that we investigated was 125 J/cm^2, when we irradiated the bacteria for 42 minutes.

[2] = system: P. aeruginosa biofilm; assay: Photoinactivation of 48-hour in vitro biofilms by adjuvant/antibiotic + antimicrobial blue light; assay type: cell-based, Pseudomonas aeruginosa
Description: The bacterial suspension was grown in a shaking incubator overnight in BHI broth. Cells were collected by centrifugation at 4,000 rpm for 5 minutes and suspended in PBS at a density of 10^6 CFU/mL. Then, the biofilms were grown for 48 hours (unless otherwise specified) in 96-well microtiter plates as described previously [Ref. 27], with a renewal of the media every 24 hours. Following the 48-hour biofilm growth, fresh 200 μL of PBS with or without menadione in different concentrations were added to the wells and the biofilms were incubated in the dark at 25° C. for 1 hour: 0, 0.5, 1, and 2 μg/mL for MRSA USA300, AF0001, IQ0064; […]; and 0, 100, and 150 μg/mL for E. coli ATCC 25922. After that, the control and the menadione-treated biofilms were maintained without irradiation (“menadione/dark”). Simultaneously, the aBL was delivered to the other biofilm groups testing different power densities (50, 30, 15, and 10 mW/cm^2) while keeping the same radiant exposure of 250 J/cm^2. After the light exposure, the biofilms were carefully washed two times with PBS and 200 μL of PBS was added to each well. Then, the bacterial biofilms in each well were harvested by scratching with a sterile pipette tip and three wells of each group were pooled together in a 1.5 mL microcentrifuge tube. The total volume obtained, 600 μL (3 wells), was sonicated using a Branson 2510 Water Bath Sonicator (Marshall Scientific, LLC) for 5 minutes and the CFU was determined by 10-fold serial dilutions in PBS on BHI agar plates. CFU was counted after overnight incubation at 37° C. Experiments were performed in triplicate.
A bacterial suspension was grown in a shaking incubator overnight in BHI broth. Cells were collected by centrifugation at 4,000 rpm for 5 minutes and suspended in PBS at a density of 10^6 CFU/mL. Then, the biofilms were grown for 48 hours in 96-well microtiter plates with a renewal of the media every 24 hours. Following the 48-hour biofilm growth, fresh 200 μL of PBS with the tetracyclines minocycline, doxycycline, and demeclocycline in different concentrations were added to the wells and the biofilms were incubated in the dark at 25° C. for 1 hour: 0, 0.25, 0.5, and 1 μg/mL for minocycline; 0, 0.5, 1, and 2 μg/mL for doxycycline; and 0, 0.5, 1, and 2 for demeclocycline. After that, the control and the tetracycline-treated biofilms were maintained without irradiation (“menadione/dark”). […] The total volume obtained, 600 μL (3 wells), was sonicated using a Branson 2510 Water Bath Sonicator (Marshall Scientific, LLC) for 5 minutes and the CFU/mL was determined by 10-fold serial dilutions in PBS on BHI agar plates. CFU was counted after overnight incubation at 37° C.

[3] = system: P. aeruginosa; assay: Photoinactivation of planktonic cultures by menadione + antimicrobial blue light; assay type: cell-based, Pseudomonas aeruginosa PA01; conditions: menadione ⅛ MIC + aBL 90 J/cm^2 (50 mW/cm^2), 405 nm
Description: The bacterial cells were grown in BHI broth medium shaken overnight. Cells were collected by centrifugation at 4,000 rpm for 5 minutes and suspended in PBS at a density of 10^8 colony-forming units (CFU)/mL (estimated by measuring the optical density at 600 nm; O.D 0.1=10^8 cells/mL). The microbial suspension in PBS was transferred to a 35×12-mm dish and mixed with different concentrations of menadione: 0, 0.5, 1 and 2 μg/mL for MRSA USA300, AF003 and IQ0064; 0, 1, 10 and 30 μg/mL for P. aeruginosa PA01; and 0, 16, 32, 64 and 128 μg/mL for E. coli ATCC 25922. After incubation in the dark at 25° C. for 1 hour, the planktonic suspension of cells at room temperature was irradiated using aBL (405 nm) at 50 mW/cm^2 with different radiant exposures (0-250 J/cm^2). During the aBL irradiation, 40 μL of samples were withdrawn every 15 minutes, and the CFUs were determined by 10-fold serial dilutions in PBS (10-1 to 10-7 dilution factors), plated on BHI agar plates as described previously [Ref. 17]. CFUs were counted after overnight incubation at 37° C. Experiments were performed in triplicate.

CC1=CC(=O)c2ccccc2C1=O [menadione, 2-methyl-1,4-naphthoquinone]
MIC ([1]; 5 min, aBL 15.62 J/cm^2 (5 mins.), 50 mW/cm^2): 8 µg/mL
MIC ([1]; 0.175 h, aBL 31.25 J/cm^2 (10.5 mins.), 50 mW/cm^2): 4 µg/mL
MIC ([1]; 0.35 h, aBL 62.5 J/cm^2 (21 mins.), 50 mW/cm^2): 1 µg/mL
MIC ([1]; 0.7 h, aBL 125 J/cm^2 (42 mins.), 50 mW/cm^2): 0.0625 µg/mL
MIC ([1]; 0 J/cm^2 (Dark)): 8 µg/mL
lowering of MIC by aBL ([1]; aBL 125 J/cm^2 vs dark): 78%
biofilm reduction by menadione without irradiation ([2]; 48 h biofilm, dark): < 1 log killing
biofilm eradicated by menadione plus aBL ([2]; 48 h biofilm, 100 μg/mL menadione + aBL 250 J/cm^2 (50 mW/cm^2)): 6.6 log10 CFU/mL
potentiation of the effect of aBL by menadione ([2]; 48 h in vitro biofilm, vs aBL alone): ~100 fold
eradication by aBL combined with menadione [3]: 4.54 log10 CFU/mL
